Patent US10442807B2, “Aryl substituted bicyclic compounds as herbicides” (FMC Corporation, priority 2015, dated 2019)

How the values were obtained:
Format in all cases: in vivo
[1] = system: sedge, umbrella (small-flower umbrella sedge, Cyperus difformis); assay: Test B flooded paddy test, visual plant response rating; conditions: 250 g ai/ha; applied to paddy water at 2-leaf stage; rated after 13 to 15 days; scale 0 to 100, 0 is no effect, 100 is complete control
Method in brief: (§1)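 Visual 0–100 scores (0 none, 100 complete control) versus controls were taken 13 to 15 days after treatment in a greenhouse. Treatment was applied into flood water kept at 3 cm over the soil surface for the whole test.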

[2] = system: ducksalad (Heteranthera limosa); assay: as above; conditions: 250 g ai/ha; applied to paddy water at 2-leaf stage; rated after 13 to 15 days; scale 0 to 100, 0 is no effect, 100 is complete control
Method in brief: as §1

rice (Oryza sativa) = assay: as above; conditions: 250 g ai/ha; applied to paddy water at 2-leaf stage; rated after 13 to 15 days; scale 0 to 100, 0 is no effect, 100 is complete control
Method in brief: as §1

[3] = system: barnyardgrass (Echinochloa crus-galli); assay: as above; conditions: 250 g ai/ha; applied to paddy water at 2-leaf stage; rated after 13 to 15 days; scale 0 to 100, 0 is no effect, 100 is complete control
Method in brief: as §1

kochia (Kochia scoparia) [4] = assay: Test A preemergence, directed soil spray, visual injury rating; conditions: approx. 10 d, 0 = no effect, 100 = complete control
Method in brief: (§2)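 Seeds sown in loam/sand soil got a directed soil spray before emergence, or plants at one- to two-leaf stage (2-10 cm) were sprayed postemergence; chemical in non-phytotoxic solvent with surfactant. Greenhouse approx. 10 d, then visual injury vs untreated controls on 0 (no effect) to 100 (complete control) scale.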

[5] = system: ryegrass, Italian (Italian ryegrass, Lolium multiflorum); assay: as above; conditions: approx. 10 d, 0 = no effect, 100 = complete control
Method in brief: as §2

[6] = system: foxtail, giant (giant foxtail, Setaria faberii); assay: as above; conditions: approx. 10 d, 0 = no effect, 100 = complete control
Method in brief: as §2

[7] = system: ragweed (common ragweed, Ambrosia elation); assay: as above; conditions: approx. 10 d, 0 = no effect, 100 = complete control
Method in brief: as §2

[8] = system: pigweed (Amaranthus retroflexus); assay: as above; conditions: approx. 10 d, 0 = no effect, 100 = complete control
Method in brief: as §2

[9] = system: barnyardgrass (Echinochloa crus-galli); assay: as above; conditions: approx. 10 d, 0 = no effect, 100 = complete control
Method in brief: as §2

corn (Zea mays) = assay: Test A postemergence application, visual injury rating; conditions: approx. 10 d, 0 = no effect, 100 = complete control
Method in brief: as §2

kochia (Kochia scoparia) [10] = assay: as above; conditions: approx. 10 d, 0 = no effect, 100 = complete control
Method in brief: as §2

[11] = system: ryegrass, Italian (Italian ryegrass, Lolium multiflorum); assay: as above; conditions: approx. 10 d, 0 = no effect, 100 = complete control
Method in brief: as §2

[12] = system: foxtail, giant (giant foxtail, Setaria faberii); assay: as above; conditions: approx. 10 d, 0 = no effect, 100 = complete control
Method in brief: as §2

[13] = system: ragweed (common ragweed, Ambrosia elation); assay: as above; conditions: approx. 10 d, 0 = no effect, 100 = complete control
Method in brief: as §2

[14] = system: blackgrass (Alopecurus myosuroides); assay: as above; conditions: approx. 10 d, 0 = no effect, 100 = complete control
Method in brief: as §2

[15] = system: wheat (Triticum aestivum); assay: as above; conditions: approx. 10 d, 0 = no effect, 100 = complete control
Method in brief: as §2

[16] = system: pigweed (Amaranthus retroflexus); assay: as above; conditions: approx. 10 d, 0 = no effect, 100 = complete control
Method in brief: as §2

[17] = system: barnyardgrass (Echinochloa crus-galli); assay: as above; conditions: approx. 10 d, 0 = no effect, 100 = complete control
Method in brief: as §2

[18] = system: galium (catchweed bedstraw, Galium aparine); assay: as above; conditions: approx. 10 d, 0 = no effect, 100 = complete control
Method in brief: as §2

Compound | Plant response rating, Flood, Sedge, Umbrella [1] | Plant response rating, Flood, Ducksalad [2] | Plant response rating, Flood, Rice (rice (Oryza sativa)) | Plant response rating, Flood, Barnyardgrass [3] | Kochia plant response rating (0 to 100 scale) (kochia (Kochia scoparia) [4]; 125 g ai/ha) | Kochia plant response rating (0 to 100 scale) (kochia (Kochia scoparia) [4]; 500 g ai/ha) | Ryegrass, Italian plant response rating (0 to 100 scale) ([5]; 125 g ai/ha) | Ryegrass, Italian plant response rating (0 to 100 scale) ([5]; 500 g ai/ha) | Foxtail, Giant plant response rating (0 to 100 scale) ([6]; 125 g ai/ha) | Foxtail, Giant plant response rating (0 to 100 scale) ([6]; 500 g ai/ha) | Ragweed plant response rating (0 to 100 scale) ([7]; 125 g ai/ha) | Ragweed plant response rating (0 to 100 scale) ([7]; 500 g ai/ha) | Pigweed plant response rating (0 to 100 scale) ([8]; 125 g ai/ha) | Pigweed plant response rating (0 to 100 scale) ([8]; 500 g ai/ha) | Barnyardgrass plant response rating (0 to 100 scale) ([9]; 125 g ai/ha) | Barnyardgrass plant response rating (0 to 100 scale) ([9]; 500 g ai/ha) | Corn plant response rating (0 to 100 scale) (corn (Zea mays); 125 g ai/ha) | Corn plant response rating (0 to 100 scale) (corn (Zea mays); 500 g ai/ha) | Kochia plant response rating (0 to 100 scale) (kochia (Kochia scoparia) [10]; 125 g ai/ha) | Kochia plant response rating (0 to 100 scale) (kochia (Kochia scoparia) [10]; 500 g ai/ha) | further results
Cc1nnc2n1CC(c1ccc(C(F)(F)F)cc1)C2C(=O)Nc1ccccc1F (stereo not drawn) [Compound 24, N-(2-fluorophenyl)-6,7-dihydro-3-methyl-6-[4-(trifluoromethyl)phenyl]-5H-pyrrolo[2,1-c]-1,2,4-triazole-7-carboxamide] | 0 | 0 | 0 | 0 | 0 | 60 | 0 | 30 | 30 | 90 | 0 | 30 | 0 | 20 | 0 | 40 | 0 | 40 | 0 | 0 | Ryegrass, Italian plant response rating (0 to 100 scale) ([11]; 125 g ai/ha): 0; Ryegrass, Italian plant response rating (0 to 100 scale) ([11]; 500 g ai/ha): 20; Foxtail, Giant plant response rating (0 to 100 scale) ([12]; 125 g ai/ha): 40; Foxtail, Giant plant response rating (0 to 100 scale) ([12]; 500 g ai/ha): 80; Ragweed plant response rating (0 to 100 scale) ([13]; 125 g ai/ha): 0; Ragweed plant response rating (0 to 100 scale) ([13]; 500 g ai/ha): 0; Blackgrass plant response rating (0 to 100 scale) ([14]; 125 g ai/ha): 0; Blackgrass plant response rating (0 to 100 scale) ([14]; 500 g ai/ha): 50; Wheat plant response rating (0 to 100 scale) ([15]; 125 g ai/ha): 0; Wheat plant response rating (0 to 100 scale) ([15]; 500 g ai/ha): 30; Pigweed plant response rating (0 to 100 scale) ([16]; 125 g ai/ha): 0; Pigweed plant response rating (0 to 100 scale) ([16]; 500 g ai/ha): 20; Barnyardgrass plant response rating (0 to 100 scale) ([17]; 125 g ai/ha): 30; Barnyardgrass plant response rating (0 to 100 scale) ([17]; 500 g ai/ha): 80; Galium plant response rating (0 to 100 scale) ([18]; 125 g ai/ha): 0; Galium plant response rating (0 to 100 scale) ([18]; 500 g ai/ha): 60
O=C(Nc1ccccc1F)C1C2=NCCCN2CC1c1cccc(C(F)(F)F)c1 (stereo not drawn) [Compound 1] | 50 | 70 | 0 | 0 | 0 | 0 | 0 | 0 | 0 | 60 | 0 | 0 | 0 | 0 | 0 | 70 | 0 | 20 | 0 | 0 | Ryegrass, Italian plant response rating (0 to 100 scale) ([11]; 125 g ai/ha): 0; Ryegrass, Italian plant response rating (0 to 100 scale) ([11]; 500 g ai/ha): 0; Foxtail, Giant plant response rating (0 to 100 scale) ([12]; 125 g ai/ha): 0; Foxtail, Giant plant response rating (0 to 100 scale) ([12]; 500 g ai/ha): 40; Ragweed plant response rating (0 to 100 scale) ([13]; 125 g ai/ha): 0; Ragweed plant response rating (0 to 100 scale) ([13]; 500 g ai/ha): 0; Blackgrass plant response rating (0 to 100 scale) ([14]; 125 g ai/ha): 0; Blackgrass plant response rating (0 to 100 scale) ([14]; 500 g ai/ha): 0; Wheat plant response rating (0 to 100 scale) ([15]; 125 g ai/ha): 0; Wheat plant response rating (0 to 100 scale) ([15]; 500 g ai/ha): 0; Pigweed plant response rating (0 to 100 scale) ([16]; 125 g ai/ha): 0; Pigweed plant response rating (0 to 100 scale) ([16]; 500 g ai/ha): 0; Barnyardgrass plant response rating (0 to 100 scale) ([17]; 125 g ai/ha): 0; Barnyardgrass plant response rating (0 to 100 scale) ([17]; 500 g ai/ha): 60; Galium plant response rating (0 to 100 scale) ([18]; 125 g ai/ha): 0; Galium plant response rating (0 to 100 scale) ([18]; 500 g ai/ha): 0
